This is an account of results in patent US9537110B2, “Chalcogen-containing organic compound and use thereof” (JNC CORPORATION, priority 2012, dated 2017).

Data set [1] is described as follows: Solubility evaluation in organic solvents. The note with it: room temperature; for solubility: organic solvent or mixture. Format: physicochemical. As to the method:
Solubility of the compound was evaluated. As a result, under room temperature, the compound was dissolved into chloroform at 381 g/L (20.5 wt. %), and into toluene at 137 g/L (13.6 wt. %). The compound is clearly found to show high solubility in any of solvent to allow use in an application process.
Solubility of the compound was evaluated. As a result, under room temperature, the compound was dissolved into chloroform at 43 g/L (2.8 wt. %), and into toluene at 23 g/L (2.6 wt. %). The compound is clearly found to show high solubility in any of solvent to allow use in an application process.

The nature of data set [2]: Evaluation of chemical stability by UV-Vis spectrum. Format: physicochemical. As to the method:
Then, 0.6951 mg of the compound synthesized in Example 3 was weighed, and dissolved into degassed benzonitrile (25 mL) using a measuring flask in a glove box (solution concentration: 4.92×10^−5 M). A prepared solution thereof was put into a UV cell with a cover, and a UV-Vis spectrum (device used: Jasco V-570 Spectrometer, made by JASCO Corporation) was immediately measured. Subsequently, opening and closing of the cover were repeated several times under atmospheric air to bring the solution into contact with oxygen in air.
Moreover, a film having a thickness of 100 nanometers formed by performing vacuum deposition of the compound synthesized in Example 3 was allowed to stand for one week in atmospheric air. The results obtained by measuring UV-Vis spectra (device used: Jasco V-570 Spectrometer, made by JASCO Corporation) over time during the period are shown in FIG. 6.

The mark [3] stands for this setting: chloroform, read-out: Solubility in chloroform.
Where [4] appears, read: toluene, read-out: Solubility in toluene.

Values after ≈ are worked out from the molar mass of the structure shown. Where two headings read alike, the source gives them in different places.

Usually melting point stands for the temperature of the solid-liquid transition. Take `CCCCCCCCCCc1ccc2cc3c(cc2c1)sc1cc2cc(CCCCCCCCCC)ccc2cc13` [Example 6, 3,9-didecyldinaphtho[2,3-b:2′,3′-d]thiophene]: the melting point is 182 to 183 °C.

`CCCCCCCCc1ccc2cc3c(cc2c1)sc1cc2cc(CCCCCCCC)ccc2cc13` [Example 8, 3,9-dioctyldinaphtho[2,3-b:2′,3′-d]thiophene]: the melting point lay in the range of 193.7 to 194.8 °C.

Compound `CCCCCCc1ccc2cc3c(cc2c1)oc1cc2cc(CCCCCC)ccc2cc13` [Example 5, 3,9-dihexyldinaphtho[2,3-b:2′,3′-d]furan] had a melting point of 198.7 to 199.1 °C.

By solubility is commonly meant how much of the substance goes into solution per volume. On to `c1ccc(-c2cc3oc4cc(-c5ccccc5)c5ccccc5c4c3c3ccccc23)cc1` [Example 20, 5,9-diphenyldinaphtho[2,1-b:1′,2′-d]furan], for which the solubility in data set [1] (setting [3]) amounted to 43 mg/mL (≈ 102 mM); in data set [1] (setting [4]), 23 mg/mL (≈ 54.7 mM). This compound also came in with a Solubility in chloroform in data set [1] (chloroform) of 2.8 wt. %. The compound further yielded a Solubility in toluene in data set [1] (toluene) of 2.6 wt. %.

For `CCCCCCCCCCc1ccc2cc3oc4cc5ccc(CCCCCCCCCC)cc5cc4c3cc2c1` [Example 1, 2,10-didecyldinaphtho[2,3-b:2′,3′-d]furan], the melting point was 175 to 176 °C.

`c1ccc2cc3c(cc2c1)sc1cc2ccccc2cc13` [Comparative Example 1, dinaphtho[2,3-b:2′,3′-d]thiophene]: the melting point was in the range of 282 to 283 °C.

As for `CCCCCCc1ccc2cc3c(cc2c1)sc1cc2cc(CCCCCC)ccc2cc13` [Example 7, 3,9-dihexyldinaphtho[2,3-b:2′,3′-d]thiophene], the melting point fell in the range of 202 to 202.4 °C.

Turning to `CCCCCCCCCCc1ccc2cc3c(cc2c1)oc1cc2cc(CCCCCCCCCC)ccc2cc13` [Example 3, 3,9-didecyldinaphtho[2,3-b:2′,3′-d]furan], the melting point was 216 to 217 °C. In addition, the “Change of UV-Vis spectrum of solution” value in data set [2] (benzonitrile solution 4.92×10^−5 M, contact with oxygen in air, 3, 24 and 72 hours) is “no change of the spectrum was observed”. Moreover, the “Chemical stability (conclusion)” value in data set [2] (solution and film in air) is “chemically stable”. Moreover, the “Change of UV-Vis spectrum of film” value in data set [2] (vacuum-deposited film 100 nanometers, one week in atmospheric air) is listed as “no change of the spectrum was observed”.

Take `CCCCCCCCc1cc2oc3cc(CCCCCCCC)c4ccccc4c3c2c2ccccc12` [Example 18, 5,9-dioctyldinaphtho[2,1-b:1′,2′-d]furan]: the solubility in data set [1] (setting [3]) came to 381 mg/mL (≈ 773 mM); in data set [1] (setting [4]) it was 137 mg/mL (≈ 278 mM). Besides, the Solubility in chloroform in data set [1] (chloroform) came out at 20.5 wt. %. Besides, the Solubility in toluene in data set [1] (toluene) is on record as 13.6 wt. %.

Compound `CCCCCCCCCCc1ccc2cc3sc4cc5ccc(CCCCCCCCCC)cc5cc4c3cc2c1` [Example 2, 2,10-didecyldinaphtho[2,3-b:2′,3′-d]thiophene] gave a melting point of 122 to 123 °C.
